Data as given in patent US10189794B2, “Heteroaryl compounds and uses thereof” (Celgene CAR LLC, priority 2013, dated 2019).

Key:
[1] = tested on: Huh7 cells; test: Cell proliferation, Huh7 (CellTiter Glo); assay type: cell-based; conditions: Homo sapiens, Huh-7; Huh7; 120 hr; read-out: Cell Proliferation GI50 (nM) HUH
Description: The growth inhibition (GI50) values were determined by Graph Pad Prism.

[2] = tested on: MDA-MB-453 cells; test: Cell proliferation, MDA-MB-453 (CellTiter Glo); assay type: cell-based; conditions: Homo sapiens; MDA-MB-453; 96 hr; read-out: Cell Proliferation GI50 (nM) MDA
Description: For both MDA-MB-453 and Huh7 cells the starting density was 5000 cells per well. The cells were allowed to settle down for 4 hr and were then treated with 5, 1.25, 0.31, 0.078, 0.020 or 0.005 μM of test compound for: 96 hr for MDA-MB-453 and 120 hr for Huh7 cells. Cell viability was determined by CellTiter Glo (Promega, Madison, Wis.) and the results were converted to cell numbers using a standard curve. The growth inhibition (GI50) values were determined by Graph Pad Prism.
The results of these experiments show the ability of compounds to inhibit cell growth in FGFR dependant cell lines and are depicted in Table 8, in the columns titled “Cell Proliferation GI50 (nM)”. MDA-MB-453 cell results fall under the heading “MDA” and Huh7 cell results fall under the heading “Huh.”

GI50 [1] [nM]	GI50 [2] [nM]	SMILES
< 100	–	C=CC(=O)NC1COCC1Nc1ncc2c(n1)N(CC)C(=O)N(c1c(Cl)c(OC)cc(OC)c1Cl)C2 (centres unmarked) [I-217]
< 100	–	C=CC(=O)NC1COCC1Nc1ncc2c(n1)N(CC1CC1)C(=O)N(c1c(Cl)c(OC)cc(OC)c1Cl)C2 (centres unmarked) [I-212]
101 to 500	–	C=CC(=O)N[C@H]1CCCC[C@H]1Nc1ncc2c(n1)N(C)C(=O)N(c1c(F)c(OC)cc(OC)c1Br)C2 [I-228]
101 to 500	–	C=CC(=O)NC1COCC1Nc1ncc2c(n1)N(C)C(=O)N(c1c(F)c(OC)cc(OC)c1F)C2 (centres unmarked) [I-198]
101 to 500	–	C=CC(=O)NC1COCC1Nc1ncc2c(n1)N(Cc1ccn(C)n1)C(=O)N(c1c(Cl)c(OC)cc(OC)c1Cl)C2 (centres unmarked) [I-215]
> 1000	–	C=CC(=O)N[C@@H]1COC[C@@H]1Nc1ncc2c(n1)N(C)C(=O)N(c1c(Cl)c(OC)cc(OC)c1Cl)C2 [I-185]
< 100	–	C=CC(=O)NC1COCC1Nc1ncc2cc(-c3c(Cl)c(OC)cc(OC)c3Cl)c(=O)n(C)c2n1 (centres unmarked) [I-211]
< 100	–	C=CC(=O)N[C@H]1COC[C@H]1Nc1ncc2c(n1)N(C)C(=O)N(c1c(Cl)c(OC)cc(OC)c1Cl)C2 [I-186]
101 to 500	–	C=CC(=O)NC1COCC1Nc1ncc2c(n1)N(Cc1cc[nH]n1)C(=O)N(c1c(Cl)c(OC)cc(OC)c1Cl)C2 (centres unmarked) [I-216]
< 100	–	C=CC(=O)NC1COCC1Nc1ncc2c(n1)N(Cc1cnn(C)c1)C(=O)N(c1c(Cl)c(OC)cc(OC)c1Cl)C2 (centres unmarked) [I-213]
< 100	–	C=CC(=O)Nc1cc(OC)ccc1Nc1ncc2cc(-c3c(Cl)c(OC)cc(OC)c3Cl)c(=O)n(C)c2n1 [I-242]
< 100	–	COc1cc(OC)c(Cl)c(N2Cc3cnc(Nc4ccccc4)nc3N(C)C2=O)c1Cl [I-238]
< 100	–	C=CC(=O)NC1COCC1Nc1ncc2c(n1)N(C)C(=O)N(c1c(F)c(OC)cc(OC)c1Cl)C2 (centres unmarked) [I-206]
501 to 999	–	C=CC(=O)NC1CN(c2ccncn2)CC1Nc1ncc2c(n1)N(C)C(=O)N(c1c(Cl)c(OC)cc(OC)c1Cl)C2 (centres unmarked) [I-201]
> 1000	–	C=CC(=O)NC1CN(C2CCN(C)CC2)CC1Nc1ncc2c(n1)N(C)C(=O)N(c1c(Cl)c(OC)cc(OC)c1Cl)C2 (racemic) [I-154]
< 100	–	C=CC(=O)N[C@H]1COC[C@H]1Nc1ncc2cc(-c3c(Cl)c(OC)cc(OC)c3Cl)c(=O)n(C)c2n1 [I-241]
101 to 500	–	C=CC(=O)N[C@H]1CCCC[C@H]1Nc1ncc2cc(-c3c(Cl)c(OC)cc(OC)c3Cl)c(=O)n(C)c2n1 [I-223]
101 to 500	–	C=CC(=O)NC1COCC1Nc1ncc2c(n1)N(Cc1cscn1)C(=O)N(c1c(Cl)c(OC)cc(OC)c1Cl)C2 (centres unmarked) [I-210]
> 1000	–	C=CC(=O)N[C@@H]1COC[C@@H]1Nc1ncc2cc(-c3c(Cl)c(OC)cc(OC)c3Cl)c(=O)n(C)c2n1 [I-240]
101 to 500	–	C=CC(=O)Nc1cc(-c2nnnn2C)ccc1Nc1ncc2c(n1)N(C)C(=O)N(c1c(Cl)c(OC)cc(OC)c1Cl)C2 [I-153]

The next lines start with the molecule.

SMILES	GI50 [1] [nM]	GI50 [2] [nM]
C=CC(=O)Nc1ccccc1Nc1ncc2c(n1)N(C1CCCNC1)C(=O)N(c1cc(OC)cc(OC)c1)C2 (centres unmarked) [I-43]	101 to 500	–
C=CC(=O)NC1CN(C)CC1Nc1ncc2c(n1)N(C)C(=O)N(c1c(Cl)c(OC)cc(OC)c1Cl)C2 (racemic) [I-138]	> 1000	–
C=CC(=O)Nc1cc(C)ccc1Nc1ncc2c(n1)N(C)C(=O)N(c1cc(OC)cc(OC)c1)C2 [I-41]	> 1000	–
C=CC(=O)Nc1ccccc1Nc1ncc2c(n1)N(CC1CC1)C(=O)N(c1cc(OC)cc(OC)c1F)C2 [I-109]	–	< 100
C=CC(=O)N[C@H]1CCCC[C@H]1Nc1ncc2c(n1)N(Cc1ccccc1)C(=O)N(c1c(Cl)c(OC)cc(OC)c1Cl)C2 [I-82]	–	< 100
C=CC(=O)Nc1ccccc1Nc1ncc2c(n1)N(CC1CC1)C(=O)N(c1cc(OC)cc(OC)c1)C2 [I-98]	> 1000	101 to 500
C=CC(=O)NC1CCCCC1Nc1ncc2c(n1)N(CC(F)F)C(=O)N(c1c(F)c(OC)cc(OC)c1F)C2 (centres unmarked) [I-115]	> 1000	–
C=CC(=O)Nc1ccccc1Nc1ncc2c(n1)N(CC(F)F)C(=O)N(c1c(F)c(OC)cc(OC)c1F)C2 [I-116]	101 to 500	< 100
C=CC(=O)Nc1ccccc1Nc1ncc2c(n1)N(C)C(=O)N(c1c(Cl)cccc1Cl)C2 [I-83]	> 1000	501 to 999
C=CC(=O)Nc1cc(N2CCCCC2)ccc1Nc1ncc2c(n1)N(C)C(=O)N(c1cc(OC)cc(OC)c1)C2 [I-31]	–	101 to 500
C=CC(=O)NC1CCCCC1Nc1ncc2c(n1)N(Cc1csc(C)n1)C(=O)N(c1c(Cl)c(OC)cc(OC)c1Cl)C2 (centres unmarked) [I-137]	501 to 999	–
C=CC(=O)Nc1cc(C(F)(F)F)ccc1Nc1ncc2c(n1)N(C)C(=O)N(c1cc(OC)cc(OC)c1)C2 [I-42]	> 1000	–
C=CC(=O)Nc1ccccc1Nc1ncc2c(n1)N(CCF)C(=O)N(c1cc(OC)cc(OC)c1Cl)C2 [I-110]	501 to 999	101 to 500
C=CC(=O)NC1CCCCC1Nc1ncc2c(n1)N(C)C(=O)N(c1c(Cl)c(OC)cc(OC)c1Cl)C2 (racemic) [I-19]	501 to 999	101 to 500
C=CC(=O)Nc1cc(C(F)(F)F)ccc1Nc1ncc2c(n1)N(Cc1ccccc1)C(=O)N(c1c(Cl)c(OC)cc(OC)c1Cl)C2 [I-6]	101 to 500	< 100
C=CC(=O)NC1CCCCC1Nc1ncc2c(n1)N(Cc1ccn(C)c(=O)c1)C(=O)N(c1c(Cl)c(OC)cc(OC)c1Cl)C2 (centres unmarked) [I-132]	> 1000	–
C=CC(=O)Nc1cc(N2CCN(C(=O)CCCC(=O)NCCCOCCOCCOCCCNC(=O)CCCC[C@@H]3SC[C@@H]4NC(=O)N[C@@H]43)CC2)ccc1Nc1ncc2c(n1)N(C)C(=O)N(c1c(Cl)c(OC)cc(OC)c1Cl)C2 [I-127]	> 1000	–
C=CC(=O)NC1CCCCC1Nc1ncc2c(n1)N(Cc1ccnc(N)c1)C(=O)N(c1c(Cl)c(OC)cc(OC)c1Cl)C2 (centres unmarked) [I-133]	101 to 500	< 100
C=CC(=O)Nc1ccccc1Nc1ncc2c(n1)N(CCF)C(=O)N(c1cc(OC)cc(OC)c1)C2 [I-102]	> 1000	–
C=CC(=O)Nc1ccccc1Nc1ncc2c(n1)N(Cc1ccnc(N)c1)C(=O)N(c1c(Cl)c(OC)cc(OC)c1Cl)C2 [I-135]	–	< 100
C=CC(=O)Nc1ccc(C(F)(F)F)cc1Nc1ncc2c(n1)N(C)C(=O)N(c1cc(OC)cc(OC)c1)C2 [I-50]	> 1000	–
C=CC(=O)Nc1ccccc1Nc1ncc2c(n1)N(C)C(=O)N(c1cc(OC)cc(OC)c1Cl)C2 [I-75]	–	101 to 500

SMILES	GI50 [1] [nM]	GI50 [2] [nM]
C=CC(=O)Nc1ccccc1Nc1ncc2c(n1)N(Cc1ccc(Cl)c(OC)c1)C(=O)N(c1c(Cl)c(OC)cc(OC)c1Cl)C2 [I-24]	–	< 100
C=CC(=O)Nc1ccccc1Nc1ncc2c(n1)N(Cc1nccs1)C(=O)N(c1c(Cl)c(OC)cc(OC)c1Cl)C2 [I-91]	–	< 100
C=CC(=O)Nc1ccccc1Nc1ncc2c(n1)N(C1CC1)C(=O)N(c1c(Cl)c(OC)cc(OC)c1Cl)C2 [I-23]	–	< 100
C=CC(=O)Nc1ccccc1Nc1ncc2c(n1)N(Cc1ccn(C)n1)C(=O)N(c1c(Cl)c(OC)cc(OC)c1Cl)C2 [I-136]	–	< 100
C=CC(=O)Nc1ccccc1Nc1ncc2c(n1)N(Cc1cscn1)C(=O)N(c1c(Cl)c(OC)cc(OC)c1Cl)C2 [I-86]	–	< 100
C=CCN1C(=O)N(c2cc(OC)cc(OC)c2)Cc2cnc(Nc3ccccc3NC(=O)C=C)nc21 [I-32]	–	501 to 999
C=CC(=O)Nc1cc(-c2cnn(C)c2)ccc1Nc1ncc2c(n1)N(C)C(=O)N(c1cc(OC)cc(OC)c1)C2 [I-77]	–	101 to 500
C=CC(=O)N[C@H]1CCCC[C@H]1Nc1ncc2c(n1)N(Cc1nccs1)C(=O)N(c1c(Cl)c(OC)cc(OC)c1Cl)C2 [I-92]	–	101 to 500
C=CC(=O)Nc1ccccc1Nc1ncc2c(n1)N(C1CCCN(C(=O)OC(C)(C)C)C1)C(=O)N(c1cc(OC)cc(OC)c1)C2 (centres unmarked) [I-36]	> 1000	–
C=CC(=O)NC1CCCCC1Nc1ncc2c(n1)N(CCF)C(=O)N(c1c(Cl)c(OC)cc(OC)c1Cl)C2 (racemic) [I-106]	> 1000	–
C=CC(=O)Nc1ccccc1Nc1ncc2c(n1)NC(=O)N(c1cc(OC)cc(OC)c1)C2 [I-125]	> 1000	–
C=CC(=O)Nc1ccccc1Nc1ncc2c(n1)N(C1CC1)C(=O)N(c1cc(OC)cc(OC)c1)C2 [I-34]	–	501 to 999
C=CC(=O)N[C@H]1COCC[C@H]1Nc1ncc2c(n1)N(C)C(=O)N(c1c(Cl)c(OC)cc(OC)c1Cl)C2 [I-140]	501 to 999	–
C=CC(=O)Nc1ccc(-c2nccs2)cc1Nc1ncc2c(n1)N(C)C(=O)N(c1cc(OC)cc(OC)c1)C2 [I-78]	–	101 to 500
C=CC(=O)Nc1ccccc1Nc1ncc2c(n1)N(C)C(=O)N(c1cc(OC)cc(OC)c1F)C2 [I-108]	–	101 to 500
C=CS(=O)(=O)Nc1ccccc1Nc1ncc2c(n1)N(C)C(=O)N(c1cc(OC)cc(OC)c1)C2 [I-67]	–	501 to 999
C=CC(=O)Nc1cc(C(=O)NC2CCN(C)CC2)ccc1Nc1ncc2c(n1)N(C)C(=O)N(c1cc(OC)cc(OC)c1)C2 [I-151]	> 1000	–
C=CC(=O)Nc1nn(C)cc1Nc1ncc2c(n1)N(C)C(=O)N(c1c(Cl)c(OC)cc(OC)c1Cl)C2 [I-117]	101 to 500	–
C=CC(=O)Nc1ccccc1Nc1ncc2c(n1)N(CC(O)CO)C(=O)N(c1cc(OC)cc(OC)c1)C2 (centres unmarked) [I-33]	> 1000	–
C=CC(=O)Nc1ccccc1Nc1ncc2c(n1)N(Cc1cccc(C#N)c1)C(=O)N(c1cc(OC)cc(OC)c1)C2 [I-90]	–	101 to 500
C=CC(=O)Nc1cc(-c2nnn(C)n2)ccc1Nc1ncc2c(n1)N(C)C(=O)N(c1cc(OC)cc(OC)c1)C2 [I-146]	> 1000	–
C=CC(=O)NC1CN(C(C)=O)CC1Nc1ncc2c(n1)N(C)C(=O)N(c1c(Cl)c(OC)cc(OC)c1Cl)C2 (racemic) [I-139]	501 to 999	–
